Reference: ChEMBL document CHEMBL3804773, “Straightforward synthesis of a novel ring-fused pyrazole-lactam and in vitro cytotoxic activity on cancer cell lines” (Eur J Med Chem, 2016)

How the values were obtained:
[1] = (§1) Cytotoxicity against human U87MG cells assessed as reduction in cell viability after 24 hrs by Z2 coulter counter method; type: functional, cell-based, U-87MG ATCC; details: U-87 MG
[2] = Cytotoxicity against human HN13 cells assessed as reduction in cell viability after 24 hrs by Z2 coulter counter method; type: functional, cell-based; details: WSU-HN13, 24 h
[3] = Cytotoxicity against human HN13 cells assessed as reduction in cell viability after 48 hrs by Z2 coulter counter method; type: functional, cell-based; details: WSU-HN13, 48 h
MCF7 [4] = test: Cytotoxicity against human MCF7 cells assessed as reduction in cell viability after 72 hrs by Z2 coulter counter method; type: functional, cell-based; details: MCF7, 72 h
MDA-MB-231 [5] = test: Cytotoxicity against human MDA-MB-231 cells assessed as reduction in cell viability after 72 hrs by Z2 coulter counter method; type: functional, cell-based; details: MDA-MB-231, 72 h
MCF7 [6] = test: Cytotoxicity against human MCF7 cells assessed as reduction in cell viability after 24 hrs by Z2 coulter counter method; type: functional, cell-based; details: MCF7, 24 h
[7] = Cytotoxicity against human HN13 cells assessed as reduction in cell viability after 72 hrs by Z2 coulter counter method; type: functional, cell-based; details: WSU-HN13, 72 h
MCF7 [8] = test: Cytotoxicity against human MCF7 cells assessed as reduction in cell viability after 48 hrs by Z2 coulter counter method; type: functional, cell-based; details: MCF7, 48 h
HeLa [9] = test: Cytotoxicity against human HeLa cells assessed as reduction in cell viability after 24 hrs by Z2 coulter counter method; type: functional, cell-based
MDA-MB-231 [10] = test: Cytotoxicity against human MDA-MB-231 cells assessed as reduction in cell viability after 48 hrs by Z2 coulter counter method; type: functional, cell-based; details: MDA-MB-231, 48 h
HeLa [11] = test: Cytotoxicity against human HeLa cells assessed as reduction in cell viability after 72 hrs by Z2 coulter counter method; type: functional, cell-based
HeLa [12] = test: Cytotoxicity against human HeLa cells assessed as reduction in cell viability after 48 hrs by Z2 coulter counter method; type: functional, cell-based
[13] = (§2) Cytotoxicity against human U87MG cells assessed as reduction in cell viability after 48 hrs by Z2 coulter counter method; type: functional, cell-based, U-87MG ATCC; details: U-87 MG
MDA-MB-231 [14] = test: Cytotoxicity against human MDA-MB-231 cells assessed as reduction in cell viability after 24 hrs by Z2 coulter counter method; type: functional, cell-based; details: MDA-MB-231, 24 h
[15] = (§3) Cytotoxicity against human U87MG cells assessed as reduction in cell viability after 72 hrs by Z2 coulter counter method; type: functional, cell-based, U-87MG ATCC; details: U-87 MG
U-87MG ATCC [16] = test: as §1; type: functional, cell-based; details: TDE = time-dependent effect
U-87MG ATCC [17] = test: as §2; type: functional, cell-based; details: TDE = time-dependent effect
U-87MG ATCC [18] = test: as §3; type: functional, cell-based; details: TDE = time-dependent effect
U-87MG ATCC [19] = test: Cytotoxicity against human U87MG cells assessed as reduction in cell viability by Z2 coulter counter method; type: functional, cell-based; details: TDE = time-dependent effect

SMILES	IC50 [1] [µM]	IC50 [2] [µM]	IC50 [3] [µM]	IC50 (MCF7 [4]) [µM]	IC50 (MDA-MB-231 [5]) [µM]	IC50 (MCF7 [6]) [µM]	IC50 [7] [µM]	IC50 (MCF7 [8]) [µM]	IC50 (HeLa [9]) [µM]	IC50 (MDA-MB-231 [10]) [µM]	IC50 (HeLa [11]) [µM]	IC50 (HeLa [12]) [µM]	IC50 [13] [µM]	IC50 (MDA-MB-231 [14]) [µM]	IC50 [15] [µM]	Activity (U-87MG ATCC [16])	Activity (U-87MG ATCC [17])	Activity (U-87MG ATCC [18])	Activity (U-87MG ATCC [19])
O=C(Nc1ccc(Nc2ccc(OC3CCNCC3)cc2)cc1)c1cccc(-n2nc(C(=O)Nc3ccc(Nc4ccc(OC5CCNCC5)cc4)cc3)c3c2C(=O)NCC3)c1	60	30.6	27	10.6	28.9	78.3	26.1	32.9	17.6	42.6	16	17.6	44.4	55	33.5				
Cn1c(=O)n(-c2ccc(C(C)(C)C#N)cc2)c2c3cc(-c4cnc5ccccc5c4)ccc3ncc21 [DACTOLISIB]	825												0.6		0.16	tde	tde	tde	tde
O=c1[nH]cc(F)c(=O)[nH]1 [FLUOROURACIL]													220		18.2	tde	tde	tde	tde
